Experiments:
hMAO B = target: T1, hMAO B (Homo sapiens, UniProt P27338); assay: hMAO B kinetic studies (Michaelis-Menten, Lineweaver-Burk); format: biochemical
T1 construct: purchased Sigma Aldrich M7441
T1 sequence (P27338 1-520): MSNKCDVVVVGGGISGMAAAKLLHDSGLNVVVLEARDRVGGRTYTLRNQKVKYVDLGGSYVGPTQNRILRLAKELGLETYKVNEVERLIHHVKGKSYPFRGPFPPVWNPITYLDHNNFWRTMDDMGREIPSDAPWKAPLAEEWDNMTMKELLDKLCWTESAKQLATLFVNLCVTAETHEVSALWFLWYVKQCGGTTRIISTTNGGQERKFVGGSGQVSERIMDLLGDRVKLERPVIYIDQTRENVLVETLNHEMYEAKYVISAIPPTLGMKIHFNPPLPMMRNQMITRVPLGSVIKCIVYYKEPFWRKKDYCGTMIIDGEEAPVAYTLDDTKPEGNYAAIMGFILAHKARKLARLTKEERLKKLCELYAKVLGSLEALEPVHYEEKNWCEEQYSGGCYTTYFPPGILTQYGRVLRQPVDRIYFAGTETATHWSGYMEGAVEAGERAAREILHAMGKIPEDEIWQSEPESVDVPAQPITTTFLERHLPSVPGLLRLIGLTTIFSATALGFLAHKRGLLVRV
Method: Results from the kinetic experiment were used for determination of Michaelis–Menten curves (Figure 4A,C). […] From Michaelis–Menten curves, Vmax and KM values were fitted (Table 2). For both compounds, Vmax values decreased curvilinearly and KM values increased curvilinearly with the increased inhibitor concentrations.
The mode of the inhibition was tested according to the standard procedure described in Reversibility Studies using different concentrations of the substrate. […] Substrate was used in six concentrations: […], 0.1 mM, 0.5 mM, 1 mM, 1.5 mM, and 2 mM. After the experiment, velocities were calculated and put on the graph (y-axis) against the concentration of the substrate (x-axis). From the Michaelis–Menten plot Vmax, KM, and α values were calculated for different concentrations of the inhibitor. Double-reciprocal plot (Lineweaver–Burk plot) were prepared to display the data.
The α values for different modes of reversible inhibition as well as their diagnostic signature on […]
The α value for compound 9 was calculated by GraphPad Prism software from the nonlinear regression curves using following equation for mixed- […]
v = Vmax*[S] / [S]*(1+ [I]/ αKi) + KM*(1+ [I]/Ki) (1) v – velocity of enzyme reaction. Vmax - maximum velocity (at infinite substrate concentration); Ki – dissociation constant for Enzyme-Inhibitor complex (in the enzymology literature other symbols can be used such as: Ki, Kii , KEI etc.); αKi – dissociation constant for Enzyme-Substrate-Inhibitor complex (in the literature also under the symbols: Ki’, Kis and KES); KM – Michaelis-Menten constant; [I]– concentration of the inhibitor; [S] – concentration of the substrate [Ref S1].
Table S1. Relation between inhibition modality, α value, and diagnostic signature on the double-reciprocal plots (i.e Lineweaver-Burk plot) [S2].
α Inhibition modality Diagnostic signature on […]
α = 1 (inhibitor binds to free enzyme lines converge at the x-axis and enzyme-substrate complex
(inhibitor can bind to free lines converge to the left of the α > 1 enzyme and enzyme-substrate y-axis and above the x-axis complex unequally), inhibitor’s affinity is higher for free enzyme
(inhibitor can bind to free
α < 1 enzyme and enzyme-substrate lines converge to the left of the complex unequally), inhibitor’s y-axis and below the x-axis affinity is higher for the enzyme- […]
α → ∞ (inhibitor and substrate compete lines converge at the y-axis for the same site of binding) […]
α → 0 and α > 0 (inhibitor binds only to the parallel lines

HEK-293 cells = assay: toxicity in HEK-293 cells (EZ4U); format: cell-based, human; details: 48 h incubation; EZ4U
Method: (§1) The used reference cytostatic drug doxorubicin (DX) decreased cell viability <50% under the same conditions at very low concentrations of 0.2 and 0.05 µM. […] Oxidative damage was induced by very high toxic levels of hydrogen peroxide (H2O2; 300 µM), the popular cell model for PD research, in neuroblastoma SH-SY5Y cell line. […] Salsolinol (SAL) was used at a concentration of 50 µM as the reference compound with the proven neuroprotection activity.
The HEK-293 cells were seeded at a concentration of 1.5 × 10^4 cells/well in 200 μL culture medium and incubated for 24 h at 37 °C and 5% CO2. […] Then, 25 μL EZ4U labelling mixture (Biomedica, Vienna, Austria) was added and the cells were incubated for 2 h. The spectrophotometric absorbance of the samples was measured using a microplate reader (EnSpire, PerkinElmer, Waltham, MA, USA) at 492 nm. All measurements were performed in triplicate, and results are shown as mean ± SD.

[1] = tested on: neuroblastoma SH-SY5Y cells; assay: neuroprotection in H2O2-treated SH-SY5Y cells (MTS); format: cell-based; details: H2O2 300 µM, 24 h
Method: as §1
(§2) SH-SY5Y cells were seeded in microplate at a concentration of 2.5 × 10^4 cells/well in 100 μL culture medium and cultured for 24 h at 37 C and 5% CO2 to reach 70% confluence. […] (R,S)-salsolinol (purity ≥ 99%) was obtained from Cayman Chemical (Ann Arbor, MI, USA). Next, H2O2 was added at final concentration 300 μM and the cells were placed into the incubator. After 24 h of compounds co-incubation with H2O2, the CellTiter 96®AQueous Non-Radioactive Cell Proliferation Assay (MTS) labeling mixture was added to each well, and the microplates were incubated under the same conditions for 5 h. The absorbance was measured using a microplate reader EnSpire (PerkinElmer, Waltham, MA USA) at 490 nm. All measurements were performed in triplicate, and results are shown as mean ± SD.

[2] = tested on: neuroblastoma SH-SY5Y cells; assay: toxicity against SH-SY5Y cells; format: cell-based; details: 10 and 50 µM
Method: as §1, §2

CC(C)(C)c1ccc(OCCCN2CCCCC2)cc1 [DL76, 1-(3-(4-tert-butylphenoxy)propyl)piperidine]
constant α (hMAO B; calculated by GraphPad Prism from nonlinear regression, mixed-model inhibition): 4.6 | mode of hMAO B inhibition (hMAO B; from Vmax and KM behaviour and Lineweaver-Burk plot): mixed mode inhibition | Vmax (RFU/min) (hMAO B; inhibitor concentration 7 nM): 1628 RFU/min | Vmax (RFU/min) (hMAO B; inhibitor concentration 48 nM): 1165 RFU/min | Vmax (RFU/min) (hMAO B; inhibitor concentration 164 nM): 726.3 RFU/min | HEK-293 cell viability (HEK-293 cells): observed only at the highest doses of 125 µM and 250 µM | cell survival of H2O2-damaged SH-SY5Y cells (neuroprotection) ([1]; 10 µM): no increase of cell survival | cell survival of H2O2-damaged SH-SY5Y cells (neuroprotection) ([1]; 50 µM): no increase of cell survival | toxic effect against SH-SY5Y cells [2]: no toxic effect
